Data from patent US20230067159A1, “ROR-GAMMA-T INHIBITOR, PREPARATION METHOD THEREOF AND USE THEREOF” (priority 2020, published 2023).
Read-outs that look alike come from different tables or passages of the source.

Biological target: T1, RORγ (Homo sapiens, UniProt P51449)
T1 construct: The concentration of B-RORγ LBD was 40 nM
T1 sequence (P51449 269-508 limits assumed): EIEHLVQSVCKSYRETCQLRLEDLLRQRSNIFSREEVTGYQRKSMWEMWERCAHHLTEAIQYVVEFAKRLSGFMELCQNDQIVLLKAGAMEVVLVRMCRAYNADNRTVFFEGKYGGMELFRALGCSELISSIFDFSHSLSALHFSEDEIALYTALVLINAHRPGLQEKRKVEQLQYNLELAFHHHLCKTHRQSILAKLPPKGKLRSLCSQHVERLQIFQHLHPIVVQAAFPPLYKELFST
Assay: Fluorescence resonance energy transfer (FRET) test, B-RORγ LBD / Biotin-SRC1
Assay type: biochemical
Description: Biological Example 1 Fluorescence Resonance Energy Transfer (FRET) Test
(1) Preparation of RORγ Test Buffer and 10 mM of DTT
100 mL of 1× Basic test buffer (HEPES (pH 7.4), 100 mM NaCl, 0.01% BSA) was prepared, and 154.25 mg of DTT was added. The mixture was well mixed.
(2) Preparation of Compound with Gradient Concentration
a. Standard compound was prepared: Standard compound was diluted with 100% DMSO to 2.5 mM, then diluted 3-fold with 11 serial dilutions to a final concentration of […];
b. Test compound was prepared referring to the standard compound.
(3) Preparation of 1× Protein Solution Mixture
(§1) a. Preparation of the desired amount of 2× B-RORγ LBD/SA-APC protein mixture: The concentration of B-RORγ LBD was 40 nM, and the concentration of SA-APC was 20 nM. They were mixed by gently inversion, and incubated at room temperature for 15 minutes. Then 400 nM of biotin was added. The mixture was mixed by gently inversion, and incubated at room temperature for 10 minutes;
as §1, with “b.” for “a.”, “Biotin-SRC1/SA-eu” for “B-RORγ LBD/SA-APC”, “Bioin-SRC1” for “B-RORγ LBD”, “SA-eu” for “SA-APC”, “200” for “400”
c. The protein mixtures prepared in step a and step b were mixed at a ratio of 1:1, and incubated at room temperature for 5 minutes;
d. 25 μL of the mixture from step c was added to the 384-well plate containing the test compound;
e. The mixture was centrifuged at 1000 rpm for one minute;
f. The mixture was incubated for 1 hour at room temperature.
(4) Data Collection and Calculation
After incubation at room temperature for 1 hour, the fluorescence values at 665 nm and 615 nm were measured with an EnVision plate reader, and the inhibition rate was calculated.
Inhibition rate %)=[(X−Min)/(Max−Min)]×100%
X is the fluorescence value ratio of “665/615” of the test compound; Min is the average value of “665/615” of the DMSO blank control; Max is the average value of “665/615” of the 10 μM SRC.

Compound | IC50 [nM] | IC50 (inhibitory activity of RORγ at the molecular level, FRET 665/615, read-out: IC50) [nM]
CCS(=O)(=O)c1ccc(CNC(=O)c2ccc(N3C[C@@H](Oc4ccc(OC(F)(F)F)cn4)C[C@H]3COC(F)F)nc2)cc1 [Example 110] | 11 | –
CCS(=O)(=O)c1ccc([C@H](CO)NC(=O)c2ccc(N3C[C@H](Oc4ccc(C(F)(F)F)cc4)C[C@H]3COC(F)F)cc2)nc1 [Example 68] | 75.3 | –
CCS(=O)(=O)c1ccc([C@H](CO)NC(=O)c2ccc(N3CCC(Cc4ccc(C(F)(F)F)cc4)C3)cc2)cc1 (stereo partly drawn) [Example 6, N—((R)-1-(4-(ethylsulfonyl)phenyl)-2-hydroxyethyl)-4-(3-(4-(trifluoromethyl)benzyl)pyrrolidin-1-yl)benzamide] | 9 | –
CCS(=O)(=O)c1ccc([C@H](CO)NC(=O)c2ccc(N3C[C@H](Oc4ccc(C(F)(F)F)cc4)C[C@H]3COCCF)cc2)cc1 [Example 29, N—((R)-1-(4-(ethylsulfonyl)phenyl)-2-hydroxyethyl)-4-((2S,4R)-2-((2-fluoroethoxy)methyl)-4-(4-(trifluoromethyl)phenoxy)pyrrolidin-1-yl)benzamide] | 10.4 | –
CCS(=O)(=O)c1ccc([C@H](CO)NC(=O)c2ccc(N3C[C@@H](Oc4ccc(C(F)(F)F)cc4)C[C@H]3COC(F)F)nc2)cc1 [Example 53] | 3 | –
CCS(=O)(=O)c1ccc([C@H](CO)NC(=O)c2cnc(N3CC[C@H](Oc4ccc(C(F)(F)F)cc4)C3)c(F)c2)cc1 [Example 81, N—((R)-1-(4-(ethylsulfonyl)phenyl)-2-hydroxyethyl)-5-fluoro-6-((S)-3-(4-(trifluoromethyl)phenoxy)pyrrolidin-1-yl)nicotinamide] | 78 | –
CCS(=O)(=O)c1ccc([C@H](CO)NC(=O)c2ccc(N3C[C@H](Oc4ccc(C(F)(F)F)cc4)C[C@H]3CN3CCOC[C@@H]3C)cc2)cc1 [Example 35, N—((R)-1-(4-(ethylsulfonyl)phenyl)-2-hydroxyethyl)-4-((2S,4R)-2-(((S)-3-methylmorpholinyl)methyl)-4-(4-(trifluoromethyl)phenoxy)pyrrolidin-1-yl)benzamide] | 135 | –
CCS(=O)(=O)c1ccc([C@H](CO)NC(=O)c2cnc(N3C[C@@H](Oc4ccc(C(F)(F)F)cc4)C[C@H]3COC(F)F)nc2)nc1 [Example 71] | 9.3 | –
CCS(=O)(=O)c1ccc(CNC(=O)c2ccc(N3CC(Cc4ccc(C(F)(F)F)cc4)C[C@H]3COC)cc2)cc1 (stereo partly drawn) [Example 7, N-(4-(ethylsulfonyl)benzyl)-4-((2S)-2-(methoxymethyl)-4-(4-(trifluoromethyl)benzyl)pyrrolidin-1-yl)benzamide] | 8.5 | –
CCS(=O)(=O)c1ccc([C@H](CO)NC(=O)c2cnc(N3C[C@H](Oc4ccc(C(F)(F)F)cc4)C[C@H]3COCC3CC3)nc2)cc1 [Example 60] | 33.8 | –
CCS(=O)(=O)c1ccc([C@H](CO)NC(=O)c2ccc(N3C[C@H](Oc4ccc(C(F)(F)F)cc4)C[C@H]3COC(C)(F)F)cc2)cc1 [Example 42] | – | 17.8
CCS(=O)(=O)c1ccc(CNC(=O)c2ccc(N3CCC(N(C)c4ccc(C(F)(F)F)cc4)C3)cc2)cc1 (stereo not drawn) [Example 10, N-(4-(ethylsulfonyl)benzyl)-4-(3-(methyl(4-(trifluoromethyl)phenyl)amino)pyrrolidin-1-yl) benzamide] | 23 | –
CCS(=O)(=O)c1ccc([C@H](CO)NC(=O)c2ccc(N3C[C@@H](Oc4ccc(C(F)(F)F)cc4)C[C@H]3COC(F)F)cc2OC)cc1 [Example 90] | 30 | –
CCS(=O)(=O)c1ccc([C@H](CCO)NC(=O)c2cnc(N3C[C@@H](Oc4ccc(OC(F)(F)F)cc4)C[C@H]3COC(F)F)c(F)c2)cc1 [Example 116] | 10 | –
CCS(=O)(=O)c1ccc([C@H](CO)NC(=O)c2ccc(N3C[C@H](Oc4ccc(C(F)(F)F)cc4)C[C@H]3COC3CCOCC3)cc2)cc1 [Example 34, N—((R)-1-(4-(ethylsulfonyl)phenyl)-2-hydroxyethyl)-4-((2S,4R)-2-(((tetrahydro-2H-pyran-4-yl)oxy)methyl)-4-(4-(trifluoromethyl)phenoxy)pyrrolidin-1-yl)benzamide] | 133 | –
CCS(=O)(=O)c1ccc([C@H](CO)NC(=O)c2ccc(N3C[C@@H](Oc4ccc(C(F)(F)F)nc4)C[C@H]3COC(F)F)cc2)cc1 [Example 83] | 6 | –
CCS(=O)(=O)c1ccc([C@H](CO)NC(=O)c2ccc(N3C[C@H](Oc4ccc(C(F)(F)F)cc4)C[C@H]3CO[C@H]3CCOC3)cc2)cc1 [Example 33, N—((R)-1-(4-(ethylsulfonyl)phenyl)-2-hydroxyethyl)-4-((2S,4R)-2-((((S)-tetrahydrofuran-3-yl)oxy)methyl)-4-(4-(trifluoromethyl)phenoxy)pyrrolidin-1-yl)benzamide] | 132 | –
CCS(=O)(=O)c1ccc([C@H](CO)NC(=O)c2ccc(N3C[C@@H](Oc4ccc(C(F)(F)F)cc4)C[C@H]3COC(F)(F)F)nc2)cc1 [Example 94, N—((R)-1-(4-(ethylsulfonyl)phenyl)-2-hydroxyethyl)-6-((2S,4S)-2-((trifluoromethoxy)methyl)-4-(4-(trifluoromethyl)phenoxy)pyrrolidin-1-yl)nicotinamide] | 8 | –
CCS(=O)(=O)c1ccc([C@H](CO)NC(=O)c2ccc(N3C[C@H](Oc4ccc(C(F)(F)F)cc4)C[C@H]3CF)cc2)cc1 [Example 24, N—((R)-1-(4-(ethylsulfonyl)phenyl)-2-hydroxyethyl)-4-((2S,4R)-2-(fluoromethyl)-4-(4-(trifluoromethyl)phenoxy)pyrrolidin-1-yl)benzamide] | 32.8 | –
CCS(=O)(=O)c1ccc([C@H](CO)NC(=O)c2ccc(N3C[C@H](Oc4ccc(C(F)(F)F)cc4)C[C@H]3CCOC(F)F)cc2)cc1 [Example 46] | 13.2 | –
CCC(F)(F)OC[C@@H]1C[C@H](Oc2ccc(C(F)(F)F)cc2)CN1c1ccc(C(=O)N[C@@H](CO)c2ccc(S(=O)(=O)CC)cn2)cn1 [Example 74] | 11 | –
CCS(=O)(=O)c1ccc([C@H](CO)NC(=O)c2ccc(N3C[C@@H](Oc4ccc(C(F)(F)F)cc4)C[C@H]3COC(F)F)cc2)nc1 [Example 69] | 4 | –
CCS(=O)(=O)c1ccc([C@H](CO)NC(=O)c2cnc(N3C[C@H](Oc4ccc(C(F)(F)F)cc4)C[C@H]3COCCF)nc2)cc1 [Example 59, N—((R)-1-(4-(ethylsulfonyl)phenyl)-2-hydroxyethyl)-2-((2S,4R)-2-((2-fluoroethoxy)methyl)-4-(4-(trifluoromethyl)phenoxy)pyrrolidin-1-yl)pyrimidine-5-carboxamide] | 28 | –
CCS(=O)(=O)c1ccc([C@H](CO)NC(=O)c2ccc(N3C[C@@H](Oc4ccc(C(F)(F)F)cc4)C[C@H]3COC(F)F)nc2)nc1 [Example 70] | 7.6 | –
CCS(=O)(=O)c1ccc(CNC(=O)c2ccc(N3CCC(Oc4ccc(C(F)(F)F)cc4)C3)cc2)cc1 (stereo not drawn) [Example 9, N-(4-(ethylsulfonyl)benzyl)-4-(3-(4-(trifluoromethyl)phenoxy)pyrrolidin-1-yl)benzamide] | 11.9 | –
CCS(=O)(=O)c1ccc(CNC(=O)c2cnc(N3C[C@H](Oc4ccc(C(F)(F)F)cc4)C[C@H]3COCCF)nc2)cc1 [Example 58, N-(4-(ethylsulfonyl)benzyl)-2-((2S, 4R)-2-((2-fluoroethoxy)methyl)-4-(4-(trifluoromethyl)phenoxy)pyrrolidin-1-yl)pyrimidine-5-carboxamide] | 57.3 | –
CCC(F)(F)OC[C@@H]1C[C@H](Oc2ccc(C(F)(F)F)cc2)CN1c1ncc(C(=O)N[C@@H](CO)c2ccc(S(=O)(=O)CC)cn2)cn1 [Example 75] | 12.1 | –
